pIC50: −log10 of the molar value.

What all share (assay type): biochemical, HIV-1
For assay [1], the target named is HIV integrase strand transfer (INST) (Human immunodeficiency virus type 1 group M subtype B, UniProt P04585). Briefly: INST assay.
The target in assay [2] is HIV RT pol (Human immunodeficiency virus type 1 group M subtype B, UniProt P04585). The assay is described as follows: RT pol assay. The following applies: Table 1; mean ± SD, at least two independent experiments.
Assay [3] addresses HIV RT RNase H (Human immunodeficiency virus type 1 group M subtype B, UniProt P04585). Briefly: RNase H assay. Particulars: read-out: RT IC50 RNH; Table 2; 3-deoxy precursor 11; tested up to 10 μM.
In assay [4] the target is RT mutant Y181C (Human immunodeficiency virus type 1 group M subtype B, UniProt P04585, Y768C). Briefly: RT pol assay against RT mutant Y181C.
In assay [5] the target is RT mutant K103N (Human immunodeficiency virus type 1 group M subtype B, UniProt P04585, K690N). Briefly: RT pol assay against RT mutant K103N.

A word on the pIC50: it is the IC50 on a negative log10 scale, so that one unit is a factor of ten. `CCc1c(CC2CCCCC2)n(COCc2cccc(Cl)c2F)c(=O)n(O)c1=O` [4e, 1-(((3-Chloro-2-fluorobenzyl)oxy)methyl)-6-(cyclohexylmethyl)-5-ethyl-3-hydroxypyrimidine-2,4(1H,3H)-dione] showed a pIC50 in assay [1] of less than 4.00.
Same read-out and setting: in the case of `CCc1c(CC2CCCCC2)n(COCc2ccc(C)cc2)c(=O)n(O)c1=O` [4h, 6-(Cyclohexylmethyl)-5-ethyl-3-hydroxy-1-(((4-methylbenzyl)oxy)methyl) pyrimidine-2,4(1H,3H)-dione] it was less than 4.00.
For the compound `CC(C)c1c(CC2CCCCC2)n(COCc2ccc(F)cc2)c(=O)n(O)c1=O` [4b, 6-(Cyclohexylmethyl)-1-(((4-fluorobenzyl)oxy)methyl)-3-hydroxy-5-isopropylpyrimidine-2,4(1H,3H)-dione], in assay [1], the pIC50 was less than 4.00.
Still for that read-out and setting: for `Cc1c(CC2CCCCC2)n(COCc2ccc(F)c(F)c2)c(=O)n(O)c1=O` [4k, 6-(Cyclohexylmethyl)-1-(((3,4-difluorobenzyl)oxy)methyl)-3-hydroxy-5-methyl pyrimidine-2,4(1H,3H)-dione] the value was less than 4.00.
In assay [1], `CCc1c(CC2CCCCC2)n(COCc2ccccc2)c(=O)n(O)c1=O` [4c, 1-((Benzyloxy)methyl)-6-(cyclohexylmethyl)-5-ethyl-3-hydroxypyrimidine-2,4(1H,3H)-dione] had a pIC50 of less than 4.00.
In the case of `CCc1c(CC2CCCCC2)n(COCc2ccc(C(F)(F)F)cc2)c(=O)n(O)c1=O` [4g, 6-(Cyclohexylmethyl)-5-ethyl-3-hydroxy-1-(((4-(trifluoromethyl)benzyl)oxy)methyl)pyrimidine-2,4(1H,3H)-dione], the pIC50 in assay [1] was less than 4.00.
`CCc1c(CC2CCCCC2)n(COCc2ccc(F)c(F)c2)c(=O)n(O)c1=O` [4f, 6-(Cyclohexylmethyl)-1-(((3,4-difluorobenzyl)oxy)methyl)-5-ethyl-3-hydroxypyrimidine-2,4(1H,3H)-dione]: the “RT IC50 Pol” value in assay [2] was “did not inhibit RT pol”. This compound also had a negative logarithm of the IC50 (pIC50) in assay [1] of less than 4.00.
In assay [1], `Cc1c(CC2CCCCC2)n(COCCc2ccc(F)cc2)c(=O)n(O)c1=O` [4m, 6-(Cyclohexylmethyl)-1-((4-fluorophenethoxy)methyl)-3-hydroxy-5-methyl pyrimidine-2,4(1H,3H)-dione] had a negative logarithm of the IC50 (pIC50) of less than 4.00.
Consider `Cc1c(CC2CCCCC2)n(COCc2ccc(C(F)(F)F)cc2)c(=O)n(O)c1=O` [4l, 6-(Cyclohexylmethyl)-3-hydroxy-5-methyl-1-(((4-(trifluoromethyl)benzyl)oxy)methyl)pyrimidine-2,4(1H,3H)-dione], for which the negative logarithm of the IC50 (pIC50) in assay [1] is less than 4.00.
`Cc1c(CC2CCCCC2)n(COCc2ccccc2)c(=O)n(O)c1=O` [4i, 1-((Benzyloxy)methyl)-6-(cyclohexylmethyl)-3-hydroxy-5-methylpyrimidine-2,4(1H,3H)-dione] gave a pIC50 in assay [1] of less than 4.00.
Consider `CC(C)c1c(Cc2ccccc2)n(COCc2ccccc2)c(=O)[nH]c1=O` [compound 14, TNK-651], for which the pIC50 in assay [3] is less than 5.00.
In assay [1], `Cc1c(CC2CCCCC2)n(COCc2cccc(Cl)c2F)c(=O)n(O)c1=O` [4j, 1-(((3-Chloro-2-fluorobenzyl)oxy)methyl)-6-(cyclohexylmethyl)-3-hydroxy-5-methylpyrimidine-2,4(1H,3H)-dione] had a pIC50 of less than 4.00.
Consider `CC(C)c1c(CC2CCCCC2)n(COCc2ccccc2)c(=O)n(O)c1=O` [4a, 1-((Benzyloxy)methyl)-6-(cyclohexylmethyl)-3-hydroxy-5-isopropylpyrimidine-2,4(1H,3H)-dione], for which the negative-log IC50 (pIC50) in assay [1] is less than 4.00; in assay [4] it was less than 5.00; in assay [5] it was less than 5.00.
Turning to `CCc1c(CC2CCCCC2)n(COCc2ccc(F)cc2)c(=O)n(O)c1=O` [4d, 6-(Cyclohexylmethyl)-5-ethyl-1-(((4-fluorobenzyl)oxy)methyl)-3-hydroxypyrimidine-2,4(1H,3H)-dione], in assay [1], the pIC50 is less than 4.00.
